# Measured values taken from ChEMBL document CHEMBL3526096, “Species differences in biliary clearance and possible relevance of hepatic uptake and efflux transporters involvement” (Drug Metab Dispos, 2013).
# Assays:
# [1] = Drug excretion in iv dosed Wistar rat assessed as compound excreted into bile; format: ADME, organism-based; settings: read-out: Drug excretion
# Rattus norvegicus [2] = assay: Total biliary clearance in iv dosed Wistar rat; format: ADME, organism-based, Bile; settings: in vivo
# [3] = Drug excretion in iv dosed human assessed as compound excreted into bile after 6 hrs; format: ADME, organism-based; settings: read-out: Drug excretion
# Homo sapiens [4] = assay: Unbound biliary clearance in iv dosed human after 6 hrs; format: ADME, organism-based, Bile; settings: in vivo
# Homo sapiens [5] = assay: Total biliary clearance in iv dosed human after 6 hrs by T-tube method; format: ADME, organism-based, Bile; settings: in vivo
# Rattus norvegicus [6] = assay: Unbound biliary clearance in iv dosed Wistar rat; format: ADME, organism-based, Bile; settings: in vivo
# [7] = Drug excretion in iv dosed dog assessed as compound excreted into bile; format: ADME, organism-based, Canis lupus familiaris; settings: read-out: Drug excretion
# [8] = Drug excretion in iv dosed rat assessed as compound excreted into bile; format: ADME, organism-based; settings: read-out: Drug excretion
# [9] = Drug excretion in iv dosed human assessed as compound excreted into bile by T-tube method; format: ADME, organism-based; settings: read-out: Drug excretion
dose excreted [1] [%],CL (Rattus norvegicus [2]) [mL/min/kg],dose excreted at 6 h [3] [%],CL free (Homo sapiens [4]) [mL/h/kg],CL (Homo sapiens [5]) [mL/day/kg],CL free (Rattus norvegicus [6]) [mL/min/kg],dose excreted [7] [%],dose excreted [8] [%],dose excreted [9] [%],Compound
33,5,0.4,2.88,17.3,29.41,,,,Cn1nnnc1SCC1=C(C(=O)O)N2C(=O)[C@@H](NC(=O)[C@H](O)c3ccccc3)[C@H]2SC1 [CEFAMANDOLE]
,,,,,,2,30,0.1,Cc1nnc(SCC2=C(C(=O)O)N3C(=O)[C@@H](NC(=O)Cn4cnnn4)[C@H]3SC2)s1 [CEFAZOLIN]
